Data as given in the NIST ThermoML archive (doi:10.1016/j.tca.2015.08.013).
± gives the expanded uncertainty stated by the source.

Details: for surface tension liquid-gas: Drop volume; for mass density / kinematic viscosity / speed of sound / vapor or sublimation pressure: Liquid; for mass density: Vibrating tube method; for kinematic viscosity / speed of sound: 101.33 kPa; for kinematic viscosity: Capillary tube (Ostwald / Ubbelohde) method; for speed of sound: Sing-around technique in a fixed-path interferometer; for vapor or sublimation pressure: Ebulliometric method (Recirculating still)

## Cc1ccco1 [2-methylfuran]
278.15 K
  surface tension liquid-gas: 27.02 ± 0.24 mN/m
  kinematic viscosity: 5.39e-07 ± 1.2e-08 m2/s
  speed of sound: 1254.8 ± 1.5 m/s
278.15 K, 99 kPa
  mass density: 934.034 ± 0.23 kg/m3
280.65 K
  surface tension liquid-gas: 26.6 ± 0.23 mN/m
  kinematic viscosity: 5.23e-07 ± 1.1e-08 m2/s
  speed of sound: 1243.4 ± 1.5 m/s
280.65 K, 99 kPa
  mass density: 931.092 ± 0.23 kg/m3
283.15 K
  surface tension liquid-gas: 26.29 ± 0.23 mN/m
  kinematic viscosity: 5.08e-07 ± 1.1e-08 m2/s
  speed of sound: 1231.9 ± 1.5 m/s
283.15 K, 99 kPa
  mass density: 928.13 ± 0.23 kg/m3
283.15 K, 100 kPa
  mass density: 928.13 ± 0.29 kg/m3
283.15 K, 2500 kPa
  mass density: 930.56 ± 0.29 kg/m3
283.15 K, 5000 kPa
  mass density: 932.75 ± 0.3 kg/m3
283.15 K, 7500 kPa
  mass density: 935.07 ± 0.3 kg/m3
283.15 K, 10000 kPa
  mass density: 937.27 ± 0.31 kg/m3
283.15 K, 20000 kPa
  mass density: 945.74 ± 0.32 kg/m3
283.15 K, 30000 kPa
  mass density: 953.37 ± 0.33 kg/m3
283.15 K, 40000 kPa
  mass density: 960.5 ± 0.33 kg/m3
283.15 K, 50000 kPa
  mass density: 967.21 ± 0.33 kg/m3
283.15 K, 60000 kPa
  mass density: 973.54 ± 0.33 kg/m3
285.37 K
  vapor or sublimation pressure: 12.57 ± 0.2 kPa
285.65 K
  surface tension liquid-gas: 26 ± 0.23 mN/m
  kinematic viscosity: 4.93e-07 ± 1.1e-08 m2/s
  speed of sound: 1220.4 ± 1.5 m/s
285.65 K, 99 kPa
  mass density: 925.161 ± 0.23 kg/m3
286.86 K
  vapor or sublimation pressure: 13.65 ± 0.2 kPa
288.15 K
  surface tension liquid-gas: 25.69 ± 0.23 mN/m
  kinematic viscosity: 4.79e-07 ± 1e-08 m2/s
  speed of sound: 1209 ± 1.5 m/s
288.15 K, 99 kPa
  mass density: 922.181 ± 0.23 kg/m3
288.15 K, 100 kPa
  mass density: 922.18 ± 0.29 kg/m3
288.15 K, 2500 kPa
  mass density: 924.54 ± 0.3 kg/m3
288.15 K, 5000 kPa
  mass density: 926.97 ± 0.3 kg/m3
288.15 K, 7500 kPa
  mass density: 929.48 ± 0.3 kg/m3
288.15 K, 10000 kPa
  mass density: 931.62 ± 0.31 kg/m3
288.15 K, 20000 kPa
  mass density: 940.4 ± 0.32 kg/m3
288.15 K, 30000 kPa
  mass density: 948.28 ± 0.33 kg/m3
288.15 K, 40000 kPa
  mass density: 955.59 ± 0.34 kg/m3
288.15 K, 50000 kPa
  mass density: 962.35 ± 0.34 kg/m3
288.15 K, 60000 kPa
  mass density: 968.84 ± 0.34 kg/m3
289.1 K
  vapor or sublimation pressure: 15.22 ± 0.2 kPa
290.65 K
  surface tension liquid-gas: 25.26 ± 0.23 mN/m
  kinematic viscosity: 4.66e-07 ± 1e-08 m2/s
  speed of sound: 1197.5 ± 1.5 m/s
290.65 K, 99 kPa
  mass density: 919.197 ± 0.23 kg/m3
291.81 K
  vapor or sublimation pressure: 17.26 ± 0.2 kPa
293.15 K
  surface tension liquid-gas: 24.98 ± 0.23 mN/m
  kinematic viscosity: 4.55e-07 ± 9.8e-09 m2/s
  speed of sound: 1186 ± 1.5 m/s
293.15 K, 99 kPa
  mass density: 916.198 ± 0.23 kg/m3
293.15 K, 100 kPa
  mass density: 916.2 ± 0.29 kg/m3
293.15 K, 2500 kPa
  mass density: 918.63 ± 0.3 kg/m3
293.15 K, 5000 kPa
  mass density: 921.3 ± 0.3 kg/m3
293.15 K, 7500 kPa
  mass density: 923.72 ± 0.31 kg/m3
293.15 K, 10000 kPa
  mass density: 926.09 ± 0.31 kg/m3
293.15 K, 20000 kPa
  mass density: 934.94 ± 0.32 kg/m3
293.15 K, 30000 kPa
  mass density: 943.1 ± 0.34 kg/m3
293.15 K, 40000 kPa
  mass density: 950.59 ± 0.34 kg/m3
293.15 K, 50000 kPa
  mass density: 957.61 ± 0.35 kg/m3
293.15 K, 60000 kPa
  mass density: 964.27 ± 0.35 kg/m3
293.4 K
  vapor or sublimation pressure: 18.52 ± 0.2 kPa
294.3 K
  vapor or sublimation pressure: 19.48 ± 0.2 kPa
295.65 K
  surface tension liquid-gas: 24.66 ± 0.22 mN/m
  kinematic viscosity: 4.46e-07 ± 9.6e-09 m2/s
  speed of sound: 1174.6 ± 1.5 m/s
295.65 K, 99 kPa
  mass density: 913.193 ± 0.23 kg/m3
295.86 K
  vapor or sublimation pressure: 20.63 ± 0.2 kPa
297.45 K
  vapor or sublimation pressure: 22.34 ± 0.2 kPa
298.15 K
  surface tension liquid-gas: 24.34 ± 0.22 mN/m
  kinematic viscosity: 4.38e-07 ± 9.5e-09 m2/s
  speed of sound: 1163.2 ± 1.5 m/s
298.15 K, 99 kPa
  mass density: 910.179 ± 0.23 kg/m3
298.15 K, 100 kPa
  mass density: 910.18 ± 0.29 kg/m3
298.15 K, 2500 kPa
  mass density: 912.71 ± 0.3 kg/m3
298.15 K, 5000 kPa
  mass density: 915.3 ± 0.3 kg/m3
298.15 K, 7500 kPa
  mass density: 918 ± 0.31 kg/m3
298.15 K, 10000 kPa
  mass density: 920.32 ± 0.31 kg/m3
298.15 K, 20000 kPa
  mass density: 929.72 ± 0.33 kg/m3
298.15 K, 30000 kPa
  mass density: 937.91 ± 0.34 kg/m3
298.15 K, 40000 kPa
  mass density: 945.67 ± 0.35 kg/m3
298.15 K, 50000 kPa
  mass density: 952.89 ± 0.35 kg/m3
298.15 K, 60000 kPa
  mass density: 959.58 ± 0.36 kg/m3
299.76 K
  vapor or sublimation pressure: 24.68 ± 0.2 kPa
300.65 K
  surface tension liquid-gas: 24.03 ± 0.22 mN/m
  kinematic viscosity: 4.29e-07 ± 9.3e-09 m2/s
  speed of sound: 1151.9 ± 1.5 m/s
300.65 K, 99 kPa
  mass density: 907.155 ± 0.23 kg/m3
300.83 K
  vapor or sublimation pressure: 25.8 ± 0.2 kPa
303.15 K
  surface tension liquid-gas: 23.71 ± 0.22 mN/m
  kinematic viscosity: 4.2e-07 ± 9.1e-09 m2/s
  speed of sound: 1140.6 ± 1.5 m/s
303.15 K, 99 kPa
  mass density: 904.121 ± 0.23 kg/m3
303.15 K, 100 kPa
  mass density: 904.12 ± 0.29 kg/m3
303.15 K, 2500 kPa
  mass density: 906.73 ± 0.3 kg/m3
303.15 K, 5000 kPa
  mass density: 909.46 ± 0.3 kg/m3
303.15 K, 7500 kPa
  mass density: 912.07 ± 0.31 kg/m3
303.15 K, 10000 kPa
  mass density: 914.76 ± 0.31 kg/m3
303.15 K, 20000 kPa
  mass density: 924.23 ± 0.33 kg/m3
303.15 K, 30000 kPa
  mass density: 932.75 ± 0.35 kg/m3
303.15 K, 40000 kPa
  mass density: 940.68 ± 0.36 kg/m3
303.15 K, 50000 kPa
  mass density: 948.03 ± 0.36 kg/m3
303.15 K, 60000 kPa
  mass density: 955.1 ± 0.36 kg/m3
303.45 K
  vapor or sublimation pressure: 28.68 ± 0.2 kPa
305.13 K
  vapor or sublimation pressure: 30.8 ± 0.2 kPa
305.65 K
  surface tension liquid-gas: 23.41 ± 0.22 mN/m
  kinematic viscosity: 4.11e-07 ± 8.9e-09 m2/s
  speed of sound: 1129.3 ± 1.5 m/s
305.65 K, 99 kPa
  mass density: 901.077 ± 0.23 kg/m3
307.42 K
  vapor or sublimation pressure: 33.94 ± 0.2 kPa
308.15 K
  surface tension liquid-gas: 23.06 ± 0.21 mN/m
  kinematic viscosity: 4.01e-07 ± 8.7e-09 m2/s
  speed of sound: 1118.1 ± 1.5 m/s
308.15 K, 99 kPa
  mass density: 898.02 ± 0.23 kg/m3
308.15 K, 100 kPa
  mass density: 898.02 ± 0.29 kg/m3
308.15 K, 2500 kPa
  mass density: 900.91 ± 0.3 kg/m3
308.15 K, 5000 kPa
  mass density: 903.72 ± 0.3 kg/m3
308.15 K, 7500 kPa
  mass density: 906.43 ± 0.31 kg/m3
308.15 K, 10000 kPa
  mass density: 909.05 ± 0.31 kg/m3
308.15 K, 20000 kPa
  mass density: 918.85 ± 0.33 kg/m3
308.15 K, 30000 kPa
  mass density: 927.65 ± 0.35 kg/m3
308.15 K, 40000 kPa
  mass density: 935.68 ± 0.36 kg/m3
308.15 K, 50000 kPa
  mass density: 943.2 ± 0.37 kg/m3
308.15 K, 60000 kPa
  mass density: 950.35 ± 0.37 kg/m3
